The NIST ThermoML archive (doi:10.1021/je4005245)

Conditions: 101.33 kPa, Liquid, Vibrating wire viscometry

CC(C)CCCC(C)CCCC(C)CCCCC(C)CCCC(C)CCCC(C)C (configuration not stated) [2,6,10,15,19,23-hexamethyltetracosane]
Conditions	viscosity [mPa·s]
283.77 K	60.2
288.47 K	46.1
293.29 K	35.59
298.12 K	27.95
303.07 K	22.45
308.09 K	18.3
313.13 K	15
318.17 K	12.5
323.19 K	10.57
328.26 K	8.99
333.2 K	7.8
338.18 K	6.81
343.07 K	6
348.08 K	5.32
353.08 K	4.72
358.13 K	4.2
362.98 K	3.78

CCCCC(CC)COC(=O)c1ccccc1C(=O)OCC(CC)CCCC (configuration not stated) [bis(2-ethylhexyl) 1,2-benzenedicarboxylate]
Conditions	viscosity [mPa·s]
288.53 K	110.7
293.38 K	78.73
298.29 K	57.94
303.33 K	43.27
308.23 K	33.17
313.18 K	26.13
317.99 K	21.08
323.02 K	16.96
328.12 K	13.91
333.19 K	11.62
337.71 K	9.903
343.53 K	8.268
348.48 K	7.158
353.68 K	6.199

CCCCC(CC)COC(=O)CCCCCCCCC(=O)OCC(CC)CCCC (configuration not stated) [bis(2-ethylhexyl) decanedioate]
Conditions	viscosity [mPa·s]
284.06 K	31.95
288.71 K	25.84
293.37 K	21.14
298.26 K	17.42
303.1 K	14.55
307.9 K	12.37
313.24 K	10.4
318.26 K	9.023
323.17 K	7.865
328.26 K	6.878
333.2 K	6.067
338.16 K	5.435
342.81 K	4.883
348.07 K	4.38
352.98 K	3.987
358.09 K	3.626
